Literature values as cited in PMC6891756, “Synthesis and Biological Evaluation of Novel Aminochalcones as Potential Anticancer and Antimicrobial Agents” (Molecules, 2019).

Assays:
[1] = tested on: canine malignant histiocytic cell line (DH82); set-up: method as in PMID 28738308; details: read-out: IC50 DH82 proliferation (literature); cited from earlier work
HT-29 cell line = tested on: HT-29 cell line; set-up: method as in doi:10.1007/s00044-011-9549-9; details: read-out: IC50 HT-29 (literature); cited from earlier work

SMILES: Cc1ccc(/C=C/C(=O)c2ccccc2N)cc1 [2′-amino-4-methylchalcone]
- IC50 [1]: 38.2 µM

SMILES: Nc1ccc(C(=O)/C=C/c2ccccc2Cl)cc1 [4′-amino-2-chlorochalcone]
- IC50 (HT-29 cell line): 26.2 µM

SMILES: Nc1ccc(C(=O)/C=C/c2ccc(Cl)cc2)cc1 [4′-amino-4-chlorochalcone]
- IC50 [1]: 31.4 µM

SMILES: Nc1ccc(C(=O)/C=C/c2ccc(F)cc2)cc1 [4′-amino-4-fluorochalcone]
- IC50 [1]: 34.4 µM
